Data reported in patent publication US11851391B2, “Antifungal compounds and methods of forming the same” (University of Kentucky Research Foundation, priority 2018, dated 2023).
Values after ≈ are worked out from the molar mass of the structure shown. Read-outs that look alike come from different tables or passages of the source.

Legend:
[1] = tested on: C. albicans ATCC 90819(R) (strain D); experiment: MIC determination, in vitro antifungal assay (CLSI M27-A3); type: cell-based, Candida albicans; settings: Candida albicans, ATCC90819, 48 h, MIC-0, 48 h at 35° C., read-out: MIC
Description: (§1) The activity of N,N′-diaryl-bishydrazones 7-22 was tested against a panel of seven strains of C. albicans: ATCC 10231(R) (A), ATCC 64124(R) (B), ATCC MYA-2876(S) (C), ATCC 90819(R) (D), ATCC MYA-2310(S) (E), ATCC MYA-1237(R) (F), and ATCC MYA-1003(R) (G). The activity of these bishydrazones 7-22 was also explored against a panel of three non-albicans Candida strains: C. glabrata ATCC 2001 (H), C. krusei ATCC 6258 (I), and C. parapsilosis ATCC 22019 (J). Finally, the activity of these bishydrazones 7-22 was explored against three Aspergillus strains: A. flavus ATCC MYA-3631 (K), A. nidulans ATCC 38163 (L), and A. terreus ATCC MYA-3633 (M).
(§2) Candida albicans ATCC 10231 (A), C. albicans ATCC 64124 (B), and C. albicans ATCC MYA-2876 (C) were kindly provided by Dr. Jon Y. Takemoto (Utah State University, Logan, UT, USA). C. albicans ATCC 90819 (D), C. albicans ATCC MYA-2310 (E), C. albicans ATCC MYA-1237 (F), C. albicans ATCC MYA-1003 (G), Candida glabrata ATCC 2001 (H), Candida krusei ATCC 6258 (I), Candida parapsilosis ATCC 22019 (J), Aspergillus flavus ATCC MYA-3631 (K), and Aspergillus terreus ATCC MYA-3633 (M) were obtained from the American Type Culture Collection (ATCC; Manassas, VA, USA). Aspergillus nidulans ATCC 38163 (L) was received from Dr. Jon S. Thorson (University of Kentucky, Lexington, KY, USA). Filamentous fungi and yeasts were cultivated at 35° C. in RPMI 1640 medium (with 1-glutamine, without sodium biocarbonate, Sigma-Aldrich, St. Louis, MO) buffered to a pH of 7.0 with 0.165 M morpholinepropanesulfonic acid (MOPS) buffer (Sigma-Aldrich).
(§3) The MIC values of compounds 7a-24c against yeast cells (strains A-J) were determined in 96-well plates as described in the CLSI document M27-A3 with minor modifications. A single colony of freshly prepared yeast cells was used to inoculate 5 mL of yeast extract peptone dextrose (YPD) broth prior to incubation overnight with shaking at 200 rpm at 35° C. From the actively growing yeast culture, 100 μL were then transferred to 900 μL of sterile ddH2O and re-adjusted to achieve OD600 of 0.12 (˜1×10^6 CFU/mL). The cell suspension was further diluted to achieve 2-4×10^3 CFU/mL in RPMI 1640 medium. […] The final concentration of DMSO was ensured to be <1.25% in all experiments. The MIC values for compounds 7a-24c and CAS were defined as the minimum drug concentration that yielded complete inhibition (also known as MIC-0).

[2] = tested on: C. albicans ATCC 64124(R) (strain B); experiment: as above; type: cell-based, Candida albicans; settings: strain B, MIC-0, 48 h at 35° C.
Description: as §1, §2, §3

[3] = tested on: C. albicans ATCC MYA-1237(R) (strain F); experiment: as above; type: cell-based, Candida albicans; settings: MIC-0, 48 h at 35° C.
Description: as §1, §2, §3

[4] = tested on: C. albicans ATCC MYA-2310(S) (strain E); experiment: as above; type: cell-based, Candida albicans; settings: MIC-0, 48 h at 35° C.
Description: as §1, §2, §3

[5] = tested on: Aspergillus nidulans ATCC 38163 (strain L); experiment: MIC determination against filamentous fungi (CLSI M38-A2); type: cell-based; settings: Aspergillus nidulans, ATCC38163, 48 h, MIC-0, 48 h at 35° C., read-out: MIC
Description: as §1, §2
(§4) Similarly, the MIC values of compounds 7a-24c, as well as that of the two control drugs against filamentous fungi (strains K-M) were determined as previously described in CLSI document M38-A2. Spores were harvested from sporulating cultures growing on potato dextrose agar (PDA) by filtration through sterile glass wool and enumerated by using a hemocytometer to obtain the desired inoculum size. […] Spore suspensions were added to the wells to afford a final concentration of 5×10^5 CFU/mL. The plates were incubated at 35° C. for 48 h. The MIC values of compounds 7a-24c and CAS against filamentous fungi were based on the complete inhibition of growth when compared to the growth control (MIC-0). […] Each test was performed in triplicate.

[6] = tested on: Aspergillus flavus ATCC MYA-3631 (strain K); experiment: as above; type: cell-based; settings: Aspergillus flavus, 48 h, MIC-0, 48 h at 35° C., read-out: MIC
Description: as §1, §2, §4

[7] = tested on: Aspergillus terreus ATCC MYA-3633 (strain M); experiment: as above; type: cell-based; settings: Aspergillus terreus, 48 h, MIC-0, 48 h at 35° C., read-out: MIC
Description: as §1, §2, §4

[8] = tested on: Candida glabrata ATCC 2001 (strain H); experiment: MIC determination, in vitro antifungal assay (CLSI M27-A3); type: cell-based; settings: MIC-0, 48 h at 35° C.
Description: as §1, §2
(§5) A single colony of freshly prepared yeast cells was used to inoculate 5 mL of yeast extract peptone dextrose (YPD) broth prior to incubation overnight with shaking at 200 rpm at 35° C. From the actively growing yeast culture, 100 μL were then transferred to 900 μL of sterile ddH2O and re-adjusted to achieve OD600 of 0.12 (˜1×10^6 CFU/mL). The cell suspension was further diluted to achieve 2-4×10^3 CFU/mL in RPMI 1640 medium. […] The final concentration of DMSO was ensured to be <1.25% in all experiments.

[9] = tested on: Candida krusei ATCC 6258 (strain I); experiment: as above; type: cell-based; settings: MIC-0, 48 h at 35° C.
Description: as §1, §2, §5

[10] = tested on: Candida albicans ATCC 10231(R) (strain A); experiment: as above; type: cell-based; settings: MIC-0 (no visible growth), 48 h at 35° C.
Description: as §1, §2, §3

[11] = tested on: Candida parapsilosis ATCC 22019 (strain J); experiment: as above; type: cell-based; settings: Lodderomyces parapsilosis, ATCC22019, 48 h, strain J; MIC-0; 48 h at 35° C.; read-out: MIC
Description: as §1, §2, §3

[12] = tested on: C. albicans ATCC MYA-1003(R) (strain G); experiment: as above; type: cell-based, Candida albicans; settings: MIC-0, 48 h at 35° C.
Description: as §1, §2, §5

[13] = tested on: C. albicans ATCC MYA-2876(S) (strain C); experiment: as above; type: cell-based, Candida albicans; settings: MIC-0, 48 h at 35° C.
Description: as §1, §2, §5

[14] = Candida albicans, ATCC64124, 48 h, read-out: MIC
[15] = Candida albicans, 48 h, read-out: MIC
[16] = Nakaseomyces glabratus, ATCC2001, 48 h, read-out: MIC
[17] = Pichia kudriavzevii, ATCC6258, 48 h, read-out: MIC
[18] = Candida albicans, ATCC10231, 48 h, read-out: MIC

| MIC [1] [µg/mL] | MIC [2, 14] [µg/mL] | MIC [3, 15] [µg/mL] | MIC [4, 15] [µg/mL] | MIC [5] [µg/mL] | MIC [6] [µg/mL] | MIC [7] [µg/mL] | MIC [8, 16] [µg/mL] | MIC [9, 17] [µg/mL] | MIC [10, 18] [µg/mL] | MIC [11] [µg/mL] | MIC [12, 15] [µg/mL] | MIC [13, 15] [µg/mL] | MIC [3] [µg/mL] | MIC [8] [µg/mL] | Compound | also measured |
| --- | --- | --- | --- | --- | --- | --- | --- | --- | --- | --- | --- | --- | --- | --- | --- | --- |
| 15.6 (≈ 36.6 µM) | 7.8 (≈ 18.3 µM) | > 31.3 | 31.3 (≈ 73.4 µM) | 7.8 (≈ 18.3 µM) | 3.9 (≈ 9.14 µM) | > 31.3 | > 31.3 | 1.95 (≈ 4.57 µM) | 7.8 (≈ 18.3 µM) | 15.6 (≈ 36.6 µM) | 7.8 (≈ 18.3 µM) | > 31.3 | – | – | Fc1ccccc1N/N=C/c1ccc(-c2cccc(/C=N/Nc3ccccc3F)c2)cc1 [Compound 10a] | – |
| 31.3 (≈ 65.4 µM) | 7.8 to 15.6 (≈ 16.3 to 32.6 µM) | 7.8 to 15.6 (≈ 16.3 to 32.6 µM) | 7.8 to 15.6 (≈ 16.3 to 32.6 µM) | > 31.3 | > 31.3 | > 31.3 | 7.8 to 15.6 (≈ 16.3 to 32.6 µM) | 7.8 to 15.6 (≈ 16.3 to 32.6 µM) | 7.8 to 15.6 (≈ 16.3 to 32.6 µM) | > 31.3 | 7.8 to 15.6 (≈ 16.3 to 32.6 µM) | 7.8 to 15.6 (≈ 16.3 to 32.6 µM) | 7.8 (≈ 16.3 µM) | 7.8 (≈ 16.3 µM) | COc1ccc(N/N=C(\C)c2ccc(-c3ccc(/C(C)=N/Nc4ccc(OC)cc4)cc3)cc2)cc1 [Compound 15c] | MIC [2]: 15.6 µg/mL (≈ 32.6 µM); MIC [4]: 15.6 µg/mL (≈ 32.6 µM); MIC [9]: 15.6 µg/mL (≈ 32.6 µM); MIC [10]: 15.6 µg/mL (≈ 32.6 µM); MIC [12]: 7.8 µg/mL (≈ 16.3 µM); MIC [13]: 15.6 µg/mL (≈ 32.6 µM) |
| > 31.3 | 31.3 (≈ 57.1 µM) | 7.8 (≈ 14.2 µM) | > 31.3 | > 31.3 | 31.3 (≈ 57.1 µM) | > 31.3 | 7.8 (≈ 14.2 µM) | > 31.3 | 31.3 (≈ 57.1 µM) | > 31.3 | 31.3 (≈ 57.1 µM) | 31.3 (≈ 57.1 µM) | 7.8 (≈ 14.2 µM) | 7.8 (≈ 14.2 µM) | Brc1ccc(N/N=C/c2ccc(-c3cccc(/C=N/Nc4ccc(Br)cc4)c3)cc2)cc1 [Compound 19a] | – |
| 0.12 (≈ 0.11 µM) | 0.24 (≈ 0.22 µM) | 0.24 (≈ 0.22 µM) | 0.12 (≈ 0.11 µM) | > 31.3 | > 31.3 | > 31.3 | 0.06 (≈ 0.0549 µM) | 0.48 (≈ 0.439 µM) | 0.975 (≈ 0.892 µM) | 1.95 (≈ 1.78 µM) | 0.48 (≈ 0.439 µM) | 0.06 (≈ 0.0549 µM) | – | – | CC[C@H](C)C[C@H](C)CCCCCCCCC(=O)N[C@H]1C[C@@H](O)[C@@H](NCCN)NC(=O)[C@@H]2[C@@H](O)CCN2C(=O)[C@H]([C@H](O)CCN)NC(=O)[C@H]([C@H](O)[C@@H](O)c2ccc(O)cc2)NC(=O)[C@@H]2C[C@@H](O)CN2C(=O)[C@H]([C@@H](C)O)NC1=O [CAS, caspofungin, reference compound] | – |
| 3.9 (≈ 11.1 µM) | 3.9 (≈ 11.1 µM) | 15.6 (≈ 44.5 µM) | 15.6 (≈ 44.5 µM) | 15.6 (≈ 44.5 µM) | > 31.3 | > 31.3 | 7.8 (≈ 22.3 µM) | 3.9 (≈ 11.1 µM) | 3.9 (≈ 11.1 µM) | 1.95 (≈ 5.56 µM) | 15.6 (≈ 44.5 µM) | 15.6 (≈ 44.5 µM) | – | – | C/C(=N\NC(=N)N)c1ccc(-c2ccc(/C(C)=N/NC(=N)N)cc2)cc1 [Compound 24c] | – |
